{"source": "BindingDB's records for doi:10.1016/S0960-894X(97)00241-2", "about": "(1997)", "biological_target": "Nitric oxide synthase, brain (Bos taurus)", "experiment": "Inhibition against neuronal nitric oxide synthase (nNOS) from bovine brain was determined", "note": "pKi: −log10 of the molar value.", "data": [{"smiles": "C#CCNC(=N)N", "note": "[amino(prop-2-ynylamino)methaniminium]", "values": [{"measurement": "pKi", "value": 1.92}]}]}
